In experiment [1] the test system is Mixed lymphocyte reaction (MLR). Briefly: Mixed lymphocyte reaction (MLR). The experiment is classed as cell-based. The note with it: for IC50: Lymphocyte, in vitro. How it is done: MLR test was performed according to a similar manner to that of U.S. Pat. No. 4,929,611
Experiment [2] concerns Embryonic hippocampal neurons. Briefly: Neurite (axon) lengths in primary embryonic hippocampal neuron cultures. The experiment is classed as cell-based, rat. The conditions noted are these: 10 nM, primary hippocampal cell cultures in rats at 72 hr, mean. The procedure: Embryonic hippocampal neurons were obtained from rat pups on embryonic day 18.5 (“El8.5”), according to Banker and Cowan (Brain Research, 1977, 126: 397425). Briefly, the hippocampal regions were removed, minced, and incubated in 100 I.U. papain at 37° C. for 45 min, and the cells were resuspended in complete neuronal medium: minimal essential medium without L-glutamine (GIBCO, Grand Island, NY), 1.5 ml/100 ml medium of high glucose minimal essential medium (GIBCO), 0.1 ml/100 ml medium of serum extender (Hito +Tm; Collaborative Research Inc, Lexington, Mass.), glutamine (GIBCO), 5% fetal calf serum (GIBCO). Cells were seeded onto coverslips (500 cells/coverslip) coated with poly-L-lysine. The coverslips were inverted onto dishes that had been precoated with a monolayer of cortical astrocytes. Hippocampal neurons (identified by their characteristic polarity and dendrites) were examined daily and randomly photographed (9-12 frames/coverslip) at 72 h. Axon (defined as the longest process) lengths were measured on photographic prints using a Houston Instrument HI-PAD digitizing tablet connected to an IBM XT computer with appropriate software (Bioquant IV, R & M Biometrics, Nashville, TN); only processes more than three-fold of the cell body length were measured. Data from identically treated coverslips (three or four per group) were not different and therefore were combined.

The target of another experiment is FKBP12 (Homo sapiens, UniProt P62942). In words: Binding assay to FKBP12. The note with it: in vitro. How it is done: The binding assay was performed according to a similar manner to that of Tamura, K., et al (Biochemical arid Biophysical Research Communications, Vol. 202, No. 1, 437-499, 1994).
Another experiment relates to sciatic nerve crush. In words: Functional recovery in the rat sciatic nerve crush model (semi-quantitative behavioral score). The conditions noted are these: scale 0-4. The experiment is classed as in vivo. The procedure:
Nine 6-week-old male Sprague-Dawley rats were anesthetized with 2% halothane, the right sciatic nerve was exposed, and the nerve was crushed twice (for a total of 60 s using a No.7 Dumont jeweler's forceps) at the level of the hip. The crush site was marked by tying a sterile 9-0 suture through the epineurial sheath.
Compound (Ia) was dissolved in vehicle comprising 30% dimethylsulfoxide (DMSO):70% saline. Three axotomized rats received subcutaneous daily injections either Compound (Ia) (1 or 5 mg/kg) or an equivalent volume of vehicle (30% DMSO in saline) (5ml/kg)
Animals were examined daily until the day of perfusion (18 days). The following semi-quantitative scale was used to evaluate the functional recovery of the animals:
0: paralysis with the foot turned-out upon walking and the toes curved;
1: ability to right the foot and move the toes;
2: ability to constantly walk on the foot;
For the behavioral analysis, mean values for recovery of function were compared using one-way ANOVA followed by the Newman-Keuls multiple comparisons test for comparison of individual values. For the morphometric analysis, mean values for the number of axons were compared using one-way ANOVA followed by the Newman Keuls multiple comparisons test for comparison of individual values.

Experiment [3] deals with SH-SY5Y human neuroblastoma cells. Briefly: Neurite lengths in NGF-treated SH-SY5Y neuroblastoma cells. The note with it: NGF 10 ng/ml alone; SH-SY5Y cells at 168 hr; mean. The experiment is classed as cell-based. The procedure:
SH-SY5Y human neuroblastoma cells were maintained in DMEM medium (GIBCO) supplemented with 10% fetal calf serum (SIGMA), 50 I.U./ml of penicillin, and 50μg/ml streptomycin (GIBCO) at 37° C. in 7% CO2. Cells were plated in six-well plates at 15,000 cells/well and treated with 0.4 μM aphidicolin (SIGMA). […] Medium was changed at 96 h and replaced with fresh medium for an additional 72 h (total time, 168 h). Duplicate wells were run in all experiments and the data were averaged for each treatment group. Analysis of neurite lengths in SH-SY5Y neuroblastoma cells:
For analysis of process length, cells (20 fields per well) were randomly photographed at 168 h. Neurite lengths were measured on photographic prints using a Houston Instrument HI-PAD digitizing tablet connected to an IBM XT computer with appropriate software (Bioquant IV, R & M Biometrics, Nashville, Tenn.); only those processes greater than two-fold of the cell body length were measured. Data from identically treated wells were not different and were therefore combined.

Sequence of FKBP12 (P62942 whole entry, species assumed): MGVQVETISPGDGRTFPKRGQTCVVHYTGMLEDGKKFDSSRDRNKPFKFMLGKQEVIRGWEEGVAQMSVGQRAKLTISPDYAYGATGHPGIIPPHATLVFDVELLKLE

`C=CC[C@@H]1/C=C(\C)C[C@H](C)C[C@H](OC)[C@H]2O[C@@](O)(C(=O)C(=O)N3CCCC[C@H]3C(=O)O[C@H](/C(C)=C/[C@@H]3CC[C@@H](O)[C@H](OC)C3)[C@H](C)[C@@H](O)CC1=O)[C@H](C)C[C@@H]2OC` [Tacrolimus, tacrolimus] returned an IC50 in experiment [1] of under 2 nM. The “Neurite Lengths” value is reported as 423.4 ± 19.50 μm in experiment [2] and “no significant difference” in experiment [2] (listed as tacrolimus).

Take `CO[C@H]1C[C@@H](C)C/C(C)=C/C(CC(C)=O)C(=O)C[C@H](O)[C@@H](C)[C@@H](/C(C)=C/[C@@H]2CC[C@@H](O)[C@H](OC)C2)OC(=O)[C@@H]2CCCCN2C(=O)C(=O)[C@]2(O)OC1[C@@H](OC)C[C@H]2C` (stereo partly shown) [Compound (Ia)]: the IC50 was over 100 nM in experiment [1] and under 5 nM on FKBP12. Moreover, in experiment [1] (conclusion in words from MLR result), the immunosuppressive activity result is “does not have immunosuppressive activity”. Further, the “Functional Score” value in the experiment on sciatic nerve crush (1 mg/kg s.c. daily, Day 15) is 2.58 ± 0.17; in the experiment on sciatic nerve crush (1 mg/kg s.c. daily, Day 16) it was 2.83 ± 0.17; in the experiment with sciatic nerve crush (1 mg/kg s.c. daily, Day 17), 3.08 ± 0.22; with sciatic nerve crush (5 mg/kg s.c. daily, Day 15), 3.17 ± 0.08; in the experiment on sciatic nerve crush (5 mg/kg s.c. daily, Day 16) it was 3.50 ± 0.00; with sciatic nerve crush (5 mg/kg s.c. daily, Day 17), 3.50 ± 0.00.

As to “NGF: nerve growth factor, used at 10 ng/ml to induce process outgrowth”, the “Neurite Lengths” value in experiment [3] was determined as 198.8 ± 8.991 μm.

Usually IC50 stands for the concentration that inhibits the measured activity by half. A low value points to inhibition by little substance.
